Data on eleven compounds can be found in ChEMBL document CHEMBL1125716, “1,2,4-Triazolo[4,3-a]pyrazine derivatives with human renin inhibitory activity. 3.1 Synthesis and biological properties of aminodeoxystatine and difluorostatone derivatives” (J Med Chem, 1991).

The assay deals with T1, Renin (Homo sapiens, UniProt P00797).
T1 sequence (P00797 whole entry): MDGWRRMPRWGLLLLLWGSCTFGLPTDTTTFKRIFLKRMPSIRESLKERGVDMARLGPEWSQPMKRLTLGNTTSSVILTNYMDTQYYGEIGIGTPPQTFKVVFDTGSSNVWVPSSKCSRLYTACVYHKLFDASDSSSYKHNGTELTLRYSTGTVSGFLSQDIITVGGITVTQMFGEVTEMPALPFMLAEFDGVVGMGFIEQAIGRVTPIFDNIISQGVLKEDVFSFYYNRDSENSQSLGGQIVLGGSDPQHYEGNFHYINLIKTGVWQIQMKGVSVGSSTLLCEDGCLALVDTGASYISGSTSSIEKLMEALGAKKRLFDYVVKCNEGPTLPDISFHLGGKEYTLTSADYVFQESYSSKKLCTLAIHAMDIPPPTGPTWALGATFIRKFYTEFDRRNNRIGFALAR
Description: Inhibition of human renin.

For orientation: IC50 means the point on the concentration scale where inhibition reaches its midpoint. With `CC(C)Cc1nc(-c2ccccc2)cn2c(CC(=O)NC(CC3CCCCC3)C(=O)C(F)(F)C(=O)NC(CC(C)C)C(=O)NCc3ccccn3)nnc12` (stereo unspecified), the IC50 is 1.9 nM.
`CC(C)CCNC(=O)C(F)(F)C(=O)C(CC1CCCCC1)NC(=O)Cc1nnc2c(CC(C)C)nc(-c3ccccc3)cn12` (stereo unspecified): the IC50 was 38 nM.
The value for `CC(C)Cc1nc(-c2ccccc2)cn2c(C(Cc3cccnc3)C(=O)NC(CC(C)CC3CCCCC3)C(O)CC(=O)NC(CC(C)C)C(=O)NCc3cccc(CN)c3)nnc12` (stereo unspecified) was 1.7 nM; that for `CC(C)Cc1nc(-c2ccccc2)cn2c([C@@H](Cc3cccnc3)C(=O)N[C@H](CC3CCCCC3)C(N)CC(=O)NC(CC(C)C)C(=O)NCc3ccccn3)nnc12` (stereo in doubt; 13c) was 6.1 nM; that for `CC(C)Cc1nc(-c2ccccc2)cn2c([C@H](Cc3cccnc3)C(=O)N[C@@H](CC3CCCCC3)C(N)CC(=O)NC(CC(C)C)C(=O)NCc3ccccn3)nnc12` (stereo in doubt; 13a) was 3.9 nM.
The value for `CCCc1nc(-c2cccnc2)cn2c(C(Cc3cccnc3)C(=O)NC(CC3CCCCC3)C(=O)C(F)(F)C(=O)NCCC(C)C)nnc12` (stereo unspecified) was 1.8 nM.
The value for `CCCc1nc(-c2cccnc2)cn2c(CC(=O)NC(CC3CCCCC3)C(=O)C(F)(F)C(=O)NCCC(C)C)nnc12` (stereo unspecified) was 1.6 nM; that for `CC(C)Cc1nc(-c2ccccc2)cn2c([C@@H](Cc3cccnc3)C(=O)N[C@H](CC3CCCCC3)C(N)CC(=O)NC(CC(C)C)C(=O)NCc3ccccn3)nnc12` (stereo in doubt; 13d) was 120 nM; that for `CCCc1nc(-c2cccnc2)cn2c(CC(=O)NC(CC3CCCCC3)C(=O)C(F)(F)C(=O)NCC)nnc12` (stereo unspecified) was 1.4 nM.
Regarding `CCCc1nc(-c2cccnc2)cn2c(CC(=O)NC(CC3CCCCC3)C(=O)C(F)(F)C(=O)NCC(C)CC)nnc12` (stereo unspecified), it took 1.7 nM to reach half-maximal inhibition (IC50).
The value for `CC(C)Cc1nc(-c2ccccc2)cn2c([C@H](Cc3cccnc3)C(=O)N[C@@H](CC3CCCCC3)C(N)CC(=O)NC(CC(C)C)C(=O)NCc3ccccn3)nnc12` (stereo in doubt; 13b) was 100 nM.
